# Key:
# [1] = In vitro metabolic stability in mouse liver microsomes
# G9a [2] = target: T1, G9a (Homo sapiens, UniProt Q96KQ7); experiment: Competition of inhibitor with cofactor SAM; format: biochemical; conditions: Km app of SAM versus inhibitor concentration
# T1 sequence (Q96KQ7 1-1210): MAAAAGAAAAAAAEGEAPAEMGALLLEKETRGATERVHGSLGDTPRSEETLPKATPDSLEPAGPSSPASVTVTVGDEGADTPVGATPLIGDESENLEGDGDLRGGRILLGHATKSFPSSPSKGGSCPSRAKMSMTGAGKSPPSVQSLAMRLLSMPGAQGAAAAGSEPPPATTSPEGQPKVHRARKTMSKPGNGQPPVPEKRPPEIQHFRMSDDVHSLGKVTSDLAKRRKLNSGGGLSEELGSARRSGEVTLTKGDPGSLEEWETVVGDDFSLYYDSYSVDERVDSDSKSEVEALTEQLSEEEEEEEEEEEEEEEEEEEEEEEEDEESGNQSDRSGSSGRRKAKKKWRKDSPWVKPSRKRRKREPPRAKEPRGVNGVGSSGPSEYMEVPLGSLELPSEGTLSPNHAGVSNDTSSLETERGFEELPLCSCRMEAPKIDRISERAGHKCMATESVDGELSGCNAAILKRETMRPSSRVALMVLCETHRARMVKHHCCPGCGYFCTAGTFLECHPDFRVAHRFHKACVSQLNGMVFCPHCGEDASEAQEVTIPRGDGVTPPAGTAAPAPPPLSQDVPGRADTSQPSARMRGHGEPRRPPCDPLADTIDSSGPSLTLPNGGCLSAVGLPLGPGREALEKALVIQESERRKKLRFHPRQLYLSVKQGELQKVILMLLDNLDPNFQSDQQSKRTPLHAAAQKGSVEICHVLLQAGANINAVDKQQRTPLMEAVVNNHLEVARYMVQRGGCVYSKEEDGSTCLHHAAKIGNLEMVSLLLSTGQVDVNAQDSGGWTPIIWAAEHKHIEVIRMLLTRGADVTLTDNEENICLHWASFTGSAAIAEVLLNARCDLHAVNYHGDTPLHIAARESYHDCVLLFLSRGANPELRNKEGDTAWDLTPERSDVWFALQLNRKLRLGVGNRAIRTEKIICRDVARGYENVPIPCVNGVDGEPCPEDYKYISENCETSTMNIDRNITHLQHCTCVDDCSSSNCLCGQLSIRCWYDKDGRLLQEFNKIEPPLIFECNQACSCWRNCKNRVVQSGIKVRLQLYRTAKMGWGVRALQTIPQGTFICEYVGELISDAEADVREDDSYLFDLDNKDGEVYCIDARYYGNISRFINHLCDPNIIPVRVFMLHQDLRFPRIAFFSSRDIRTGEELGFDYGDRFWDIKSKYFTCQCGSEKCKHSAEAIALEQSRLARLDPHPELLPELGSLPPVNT
# MDA-MB-231 cells [3] = experiment: Clonogenicity assay; format: cell-based; conditions: 2 weeks, 0.5 or 1 µM
# [4] = system: 44 GPCRs, transporters, and ion channels; format: binding
# [5] = Resazurin cell toxicity assay; format: cell-based; conditions: human, U2OS cells
# PANC-1 cells = experiment: Clonogenicity assay; format: cell-based; conditions: 2 weeks, 0.5 or 1 µM
# [6] = system: panel of 50 representative kinases; experiment: Kinase selectivity panel; format: biochemical; conditions: at 10,000 nM
# PRC2 – EZH2 = PRC2 – EZH2 (Homo sapiens, UniProt Q15910); experiment: biochemical
# [7] = Resazurin cell toxicity assay; format: cell-based; conditions: human, PANC-1 cells, Cell Toxicity EC50, PANC-1 cells
# G9a [8] = target: T1, G9a; conditions: Km app of peptide versus inhibitor concentration
# [9] = system: 13 other methyltransferases; format: biochemical; conditions: read-out: IC50 against 13 other methyltransferases
# Resazurin = conditions: human
# MDA-MB-231 cells [10] = experiment: Resazurin; conditions: MDA-MB-231 cells
# Chain of PRC2 – EZH2 (Q15910 whole entry): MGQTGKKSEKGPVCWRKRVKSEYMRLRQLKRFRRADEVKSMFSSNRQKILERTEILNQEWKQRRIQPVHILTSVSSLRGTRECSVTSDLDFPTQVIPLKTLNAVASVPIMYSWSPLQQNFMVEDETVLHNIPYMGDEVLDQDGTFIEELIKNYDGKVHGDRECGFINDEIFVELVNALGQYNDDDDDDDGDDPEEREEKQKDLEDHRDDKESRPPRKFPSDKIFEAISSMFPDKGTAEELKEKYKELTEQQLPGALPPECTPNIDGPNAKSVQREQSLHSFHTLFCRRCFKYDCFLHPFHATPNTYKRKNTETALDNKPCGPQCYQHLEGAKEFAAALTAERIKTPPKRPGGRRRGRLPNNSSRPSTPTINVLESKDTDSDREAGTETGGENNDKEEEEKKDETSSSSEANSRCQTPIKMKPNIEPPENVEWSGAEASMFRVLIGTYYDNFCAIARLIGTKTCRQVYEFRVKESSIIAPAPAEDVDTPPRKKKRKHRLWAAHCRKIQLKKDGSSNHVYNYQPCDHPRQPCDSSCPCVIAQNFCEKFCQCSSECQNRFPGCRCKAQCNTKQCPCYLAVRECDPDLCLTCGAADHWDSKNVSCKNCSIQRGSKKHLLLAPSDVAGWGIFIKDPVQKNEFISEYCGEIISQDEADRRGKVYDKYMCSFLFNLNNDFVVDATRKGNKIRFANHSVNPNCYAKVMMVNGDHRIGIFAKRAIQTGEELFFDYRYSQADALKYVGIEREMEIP
# Chain of PRC2 – EZH2 (O75530 whole entry, further chain): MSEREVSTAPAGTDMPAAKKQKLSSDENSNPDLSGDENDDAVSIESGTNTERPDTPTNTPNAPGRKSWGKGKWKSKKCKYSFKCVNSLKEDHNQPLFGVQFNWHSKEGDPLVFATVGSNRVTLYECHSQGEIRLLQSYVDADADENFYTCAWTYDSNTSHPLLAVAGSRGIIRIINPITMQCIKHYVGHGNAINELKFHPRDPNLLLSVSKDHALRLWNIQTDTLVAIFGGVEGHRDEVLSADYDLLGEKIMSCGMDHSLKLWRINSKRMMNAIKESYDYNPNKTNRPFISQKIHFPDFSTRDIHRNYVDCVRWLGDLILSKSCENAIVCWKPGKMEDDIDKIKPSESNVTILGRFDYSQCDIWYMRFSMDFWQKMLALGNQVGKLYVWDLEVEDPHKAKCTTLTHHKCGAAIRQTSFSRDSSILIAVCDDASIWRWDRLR
# Chain of PRC2 – EZH2 (Q15022 whole entry, further chain): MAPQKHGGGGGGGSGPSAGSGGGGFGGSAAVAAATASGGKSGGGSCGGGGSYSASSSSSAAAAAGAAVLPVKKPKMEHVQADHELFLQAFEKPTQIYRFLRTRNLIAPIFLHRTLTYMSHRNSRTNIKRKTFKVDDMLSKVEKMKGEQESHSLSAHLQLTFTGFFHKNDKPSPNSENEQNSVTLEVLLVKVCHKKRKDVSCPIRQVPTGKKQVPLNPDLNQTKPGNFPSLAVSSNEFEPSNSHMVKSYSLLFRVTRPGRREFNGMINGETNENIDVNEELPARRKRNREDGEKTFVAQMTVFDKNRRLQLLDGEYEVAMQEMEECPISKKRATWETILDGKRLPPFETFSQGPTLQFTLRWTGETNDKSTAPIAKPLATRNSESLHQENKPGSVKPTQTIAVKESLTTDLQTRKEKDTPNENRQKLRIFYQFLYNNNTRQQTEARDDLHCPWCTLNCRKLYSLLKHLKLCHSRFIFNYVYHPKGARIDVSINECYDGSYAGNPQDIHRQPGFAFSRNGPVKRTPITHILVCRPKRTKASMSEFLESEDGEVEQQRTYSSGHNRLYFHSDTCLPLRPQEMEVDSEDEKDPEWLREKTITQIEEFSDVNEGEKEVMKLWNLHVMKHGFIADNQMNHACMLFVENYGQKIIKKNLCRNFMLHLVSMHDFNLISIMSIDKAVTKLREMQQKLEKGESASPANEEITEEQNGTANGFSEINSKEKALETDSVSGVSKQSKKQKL
compound,measurement,setting,value
"COc1cc2c(NC3CCN(C(C)C)CC3)nc(C3CCCCC3)nc2cc1OCCCN1CCCC1 [Compound 5, reference compound]",CLint,[1],1.0 mL/min/g liver
"COc1cc2c(NC3CCN(C(C)C)CC3)nc(N3CCC(F)(F)CC3)nc2cc1OCCCN1CCCC1 [Compound 7, 2-(4,4-Difluoropiperidin-1-yl)-N-(1-isopropylpiperidin-4-yl)-6-methoxy-7-(3-(pyrrolidin-1-yl)propoxy)quinazolin-4-amine]",Mechanism of action versus cofactor SAM,G9a [2],non-competitive with the cofactor SAM
same,Effect on clonogenicity,MDA-MB-231 cells [3],no effect on clonogenicity
same,Inhibition against 5 targets of the 44-target panel,[4],> 50%
same,Inhibition against 39 targets of the 44-target panel,[4],less than 50%
same,EC50 at 48 h,[5],> 3 µM
same,Effect on clonogenicity,PANC-1 cells,reduced clonogenicity in PANC-1 cells in a concentration-dependent manner
same,Inhibition of panel of 50 representative kinases,[6],less than 20%
same,IC50,PRC2 – EZH2,> 5 µM
same,EC50 at 48 h,[7],> 3 µM
same,CLint,[1],0.5 mL/min/g liver
same,Mechanism of action versus peptide substrate,G9a [8],competitive with the peptide substrate
same,IC50,[9],> 50 µM
"COc1cc2c(NC3CCN(C(C)C)CC3)nc(N3CCOCC3)nc2cc1OCCCN1CCCC1 [Compound 13, N-(1-Isopropylpiperidin-4-yl)-6-methoxy-2-morpholino-7-(3-(pyrrolidin-1-yl)propoxy)quinazolin-4-amine]",CLint,[1],0.7 mL/min/g liver
"COc1cc2c(NC3CCN(C(C)C)CC3)nc(N3CC(F)(F)C(F)(F)C3)nc2cc1OCCCN1CCCC1 [Compound 15, N-(1-Isopropylpiperidin-4-yl)-6-methoxy-7-(3-(pyrrolidin-1-yl)propoxy)-2-(3,3,4,4-tetrafluoropyrrolidin-1-yl)quinazolin-4-amine]",CLint,[1],< 0.5 mL/min/g liver
COc1cc2c(NC3CCN(C(C)C)CC3)nc(N3CCCCC3)nc2cc1OCCCN1CCCC1 [Compound 16],EC50 at 48 h,Resazurin,7 µM
COc1cc2c(NC3CCN(C(C)C)CC3)nc(N3CCCCCC3)nc2cc1OCCCN1CCCC1 [Compound 17],EC50,"MDA-MB-231 cells [10]; read-out: Cell Toxicity EC50, 48 h",5.7 µM
"COc1cc2c(NC3CCN(C4CC4)CC3)nc(N3CCS(=O)(=O)CC3)nc2cc1OCCCN1CCCC1 [Compound 19, 4-(4-((1-Cyclopropylpiperidin-4-yl)amino)-6-methoxy-7-(3-(pyrrolidin-1-yl)propoxy)quinazolin-2-yl)thiomorpholine 1,1-dioxide]",EC50 at 48 h,Resazurin,> 50 µM
"COc1cc2c(NC3CCN(C(C)C)CC3)nc(C3CCOCC3)nc2cc1OCCCN1CCCC1 [Compound 22, N-(1-Isopropylpiperidin-4-yl)-6-methoxy-7-(3-(pyrrolidin-1-yl)propoxy)-2-(tetrahydro-2H-pyran-4-yl)quinazolin-4-amine]",Tox/function Ratio,MDA-MB-231 cells [10]; toxicity EC50 divided by functional IC50,> 130
same,EC50 at 48 h,Resazurin,> 50 µM
same,CLint,[1],4.7 mL/min/g liver

# Reference: paper PMC3880643 (Journal of medicinal chemistry, 2013)
